Measurements reported in ChEMBL document CHEMBL4396913, “Synthesis and biological evaluation of hybrid quinolone-based quaternary ammonium antibacterial agents” (Eur J Med Chem, 2019).
≈ marks a conversion by molar mass, not a printed value.

How the values were obtained:
[1] = system: Staphylococcus epidermidis; assay: Antibacterial activity against Staphylococcus epidermidis ATCC 14990 cultured in MH medium assessed as reduction in bacterial growth incubated for 48 hrs by microbroth dilution method; format: functional; details: ATCC 14990, 48 h
[2] = system: Enterococcus hirae; assay: Antibacterial activity against Enterococcus hirae ATCC 1052 cultured in BHI medium assessed as reduction in bacterial growth incubated for 48 hrs by microbroth dilution method; format: functional; details: ATCC 1052, 48 h
[3] = system: Staphylococcus aureus; assay: Antibacterial activity against methicillin resistant Staphylococcus aureus N315 cultured in MH medium assessed as reduction in bacterial growth incubated for 48 hrs by microbroth dilution method; format: functional; details: N315, 48 h
[4] = system: Escherichia coli; assay: Bactericidal activity against Escherichia coli ATCC 8739 cultured in MH medium assessed as reduction in bacterial survival incubated for 48 hrs by microbroth dilution method; format: functional; details: ATCC 8739, 48 h
[5] = system: Pseudomonas aeruginosa; assay: Bactericidal activity against Pseudomonas aeruginosa ATCC 9027 cultured in MH medium assessed as reduction in bacterial survival incubated for 48 hrs by microbroth dilution method; format: functional; details: ATCC 9027, 48 h
[6] = system: Staphylococcus epidermidis; assay: Bactericidal activity against methicillin resistant Staphylococcus epidermidis ATCC 13199 cultured in MH medium assessed as reduction in bacterial survival incubated for 48 hrs by microbroth dilution method; format: functional; details: ATCC 13199, 48 h
[7] = system: Proteus vulgaris; assay: Antibacterial activity against Proteus vulgaris NCTC 4635 cultured in MH medium assessed as reduction in bacterial growth incubated for 48 hrs by microbroth dilution method; format: functional; details: NCTC 4635, 48 h
[8] = system: Staphylococcus aureus; assay: Bactericidal activity against Staphylococcus aureus ATCC 6538 cultured in MH medium assessed as reduction in bacterial survival incubated for 48 hrs by microbroth dilution method; format: functional; details: ATCC 6538, 48 h
[9] = system: Pseudomonas aeruginosa; assay: Antibacterial activity against Pseudomonas aeruginosa ATCC 9027 cultured in MH medium assessed as reduction in bacterial growth incubated for 48 hrs by microbroth dilution method; format: functional; details: ATCC 9027, 48 h
[10] = system: Bacillus spizizenii; assay: Antibacterial activity against Bacillus subtilis ATCC 6633 cultured in MH medium assessed as reduction in bacterial growth incubated for 48 hrs by microbroth dilution method; format: functional; details: ATCC 6633, 48 h
[11] = system: Bacillus spizizenii; assay: Bactericidal activity against Bacillus subtilis ATCC 6633 cultured in MH medium assessed as reduction in bacterial survival incubated for 48 hrs by microbroth dilution method; format: functional; details: ATCC 6633, 48 h
[12] = system: Serratia marcescens; assay: Bactericidal activity against Serratia marcescens ATCC 12795 cultured in MH medium assessed as reduction in bacterial survival incubated for 48 hrs by microbroth dilution method; format: functional; details: ATCC 12795, 48 h
[13] = system: Proteus vulgaris; assay: Bactericidal activity against Proteus vulgaris NCTC 4635 cultured in MH medium assessed as reduction in bacterial survival incubated for 48 hrs by microbroth dilution method; format: functional; details: NCTC 4635, 48 h
[14] = system: Serratia marcescens; assay: Antibacterial activity against Serratia marcescens ATCC 12795 cultured in MH medium assessed as reduction in bacterial growth incubated for 48 hrs by microbroth dilution method; format: functional; details: ATCC 12795, 48 h
[15] = system: Staphylococcus aureus; assay: Antibacterial activity against Staphylococcus aureus ATCC 6538 cultured in MH medium assessed as reduction in bacterial growth incubated for 48 hrs by microbroth dilution method; format: functional; details: ATCC 6538, 48 h
[16] = system: Staphylococcus aureus; assay: Bactericidal activity against methicillin resistant Staphylococcus aureus N315 cultured in MH medium assessed as reduction in bacterial survival incubated for 48 hrs by microbroth dilution method; format: functional; details: N315, 48 h
[17] = system: Escherichia coli; assay: Antibacterial activity against Escherichia coli ATCC 8739 cultured in MH medium assessed as reduction in bacterial growth incubated for 48 hrs by microbroth dilution method; format: functional; details: ATCC 8739, 48 h
[18] = system: Streptococcus pneumoniae; assay: Bactericidal activity against Streptococcus pneumoniae cultured in MH medium assessed as reduction in bacterial survival incubated for 48 hrs by microbroth dilution method; format: functional
[19] = system: Staphylococcus aureus; assay: Bactericidal activity against methicillin resistant Staphylococcus aureus 6347 cultured in MH medium assessed as reduction in bacterial survival incubated for 48 hrs by microbroth dilution method; format: functional; details: Staphylococcus aureus, 6347, 48 h
[20] = system: Staphylococcus aureus; assay: Antibacterial activity against methicillin resistant Staphylococcus aureus 6347 cultured in MH medium assessed as reduction in bacterial growth incubated for 48 hrs by microbroth dilution method; format: functional; details: Staphylococcus aureus, 6347, 48 h
[21] = system: Enterococcus hirae; assay: Bactericidal activity against Enterococcus hirae ATCC 1052 cultured in BHI medium assessed as reduction in bacterial survival incubated for 48 hrs by microbroth dilution method; format: functional; details: ATCC 1052, 48 h
[22] = system: Staphylococcus epidermidis; assay: Bactericidal activity against Staphylococcus epidermidis ATCC 14990 cultured in MH medium assessed as reduction in bacterial survival incubated for 48 hrs by microbroth dilution method; format: functional; details: ATCC 14990, 48 h
[23] = Lipophilicity, log k of the compound at 100 ug/ml by micellar electrokinetic chromatography; format: physicochemical
[24] = system: Staphylococcus epidermidis; assay: Antibacterial activity against methicillin resistant Staphylococcus epidermidis ATCC 13199 cultured in MH medium assessed as reduction in bacterial growth incubated for 48 hrs by microbroth dilution method; format: functional; details: ATCC 13199, 48 h
[25] = system: Streptococcus pneumoniae; assay: Antibacterial activity against Streptococcus pneumoniae cultured in MH medium assessed as reduction in bacterial growth incubated for 48 hrs by microbroth dilution method; format: functional
[26] = system: Escherichia coli; assay: Bactericidal activity against […] Escherichia coli ATCC 8739 assessed as reduction in bacterial survival incubated for 48 hrs in presence of 50 ug/ml […], PAbetaN by microbroth dilution method; format: functional; details: ATCC 8739, 48 h
[27] = system: HEK293; assay: Cytotoxicity against human HEK293 cells assessed as changes in cell morphology upto 20 uM incubated for 72 hrs by MTT assay; format: cell-based; details: hek293, 72 h
[28] = system: HEK293; assay: Cytotoxicity against human HEK293 cells assessed as cell viability upto 20 uM incubated for 72 hrs by MTT assay; format: cell-based; details: hek293, 72 h
[29] = system: Escherichia coli; assay: Antibacterial activity against […] Escherichia coli ATCC 8739 assessed as reduction in bacterial growth incubated for 48 hrs in presence of 50 ug/ml […], PAbetaN by microbroth dilution method; format: functional; details: ATCC 8739, 48 h

Structure (SMILES)	MIC [1]	MIC [2]	MIC [3]	MBC [4]	MBC [5]	MBC [6]	MIC [7]	MBC [8]	MIC [9]	MIC [10]	MBC [11]	MBC [12]	MBC [13]	MIC [14]	MIC [15]	MBC [16]	MIC [17]	MBC [19]	MIC [20]	MBC [22]	further results
CCn1cc(C(=O)O)c(=O)c2cc(F)c(N3CCNCC3)cc21 [NORFLOXACIN]	0.5 mg/L (≈ 1.57 µM)	64 mg/L (≈ 200 µM)	1 mg/L (≈ 3.13 µM)	0.063 mg/L (≈ 0.197 µM)	0.25 mg/L (≈ 0.783 µM)	0.125 mg/L (≈ 0.391 µM)	0.016 mg/L (≈ 0.0501 µM)	0.25 mg/L (≈ 0.783 µM)	0.25 mg/L (≈ 0.783 µM)	0.125 mg/L (≈ 0.391 µM)	0.125 mg/L (≈ 0.391 µM)	0.25 mg/L (≈ 0.783 µM)	0.016 mg/L (≈ 0.0501 µM)	0.25 mg/L (≈ 0.783 µM)	0.25 mg/L (≈ 0.783 µM)	2 mg/L (≈ 6.26 µM)	0.032 mg/L (≈ 0.1 µM)	1 mg/L (≈ 3.13 µM)	1 mg/L (≈ 3.13 µM)	2 mg/L (≈ 6.26 µM)	MBC [18]: > 512 mg/L; MBC [21]: 64 mg/L (≈ 200 µM); log K [23]: 0.1033; MIC [24]: 0.125 mg/L (≈ 0.391 µM); MIC [25]: 128 mg/L (≈ 401 µM)
COc1c(N2CC[N+]3(CN4C(=N3)C(C(=O)O)=Cc3ccccc34)C(C)C2)c(F)cc2c(=O)c(C(=O)O)cn(C3CC3)c12.[Cl-] (stereo not given)	32 mg/L	> 512 mg/L	32 mg/L	0.5 mg/L	128 mg/L	8 mg/L	4 mg/L	16 mg/L	128 mg/L	32 mg/L	32 mg/L	64 mg/L	4 mg/L	64 mg/L	16 mg/L	32 mg/L	0.25 mg/L	16 mg/L	16 mg/L	32 mg/L	MBC [26]: 0.5 mg/L; Activity [27]: Non-Toxic; Activity [28]: Non-Toxic; MBC [18]: 256 mg/L; MIC [29]: 0.125 mg/L; log K [23]: -0.1255; MIC [24]: 4 mg/L; MIC [25]: 128 mg/L
C[C@@H]1CN(c2c(F)c(N)c3c(=O)c(C(=O)O)cn(C4CC4)c3c2F)C[C@H](C)N1 [SPARFLOXACIN]	0.125 mg/L (≈ 0.319 µM)	32 mg/L (≈ 81.5 µM)	0.125 mg/L (≈ 0.319 µM)	0.032 mg/L (≈ 0.0815 µM)	0.125 mg/L (≈ 0.319 µM)	0.032 mg/L (≈ 0.0815 µM)	0.004 mg/L (≈ 0.0102 µM)	0.25 mg/L (≈ 0.637 µM)	0.125 mg/L (≈ 0.319 µM)	0.063 mg/L (≈ 0.161 µM)	0.063 mg/L (≈ 0.161 µM)	1 mg/L (≈ 2.55 µM)	0.008 mg/L (≈ 0.0204 µM)	0.5 mg/L (≈ 1.27 µM)	0.125 mg/L (≈ 0.319 µM)	0.125 mg/L (≈ 0.319 µM)	0.016 mg/L (≈ 0.0408 µM)	0.063 mg/L (≈ 0.161 µM)	0.063 mg/L (≈ 0.161 µM)	0.125 mg/L (≈ 0.319 µM)	MBC [18]: 128 mg/L (≈ 326 µM); MBC [21]: 32 mg/L (≈ 81.5 µM); log K [23]: 0.1161; MIC [24]: 0.032 mg/L (≈ 0.0815 µM); MIC [25]: 0.25 mg/L (≈ 0.637 µM)
CCn1cc(C(=O)O)c(=O)c2cc(F)c(N3CC[N+]4(CC3)CN3C(C)=CC(C)=C(C(=O)O)C3=N4)nc21.[Cl-]	128 mg/L	16 mg/L	128 mg/L	16 mg/L	512 mg/L	128 mg/L	1 mg/L	128 mg/L	512 mg/L	16 mg/L	16 mg/L	128 mg/L	2 mg/L	64 mg/L	128 mg/L	128 mg/L	8 mg/L	128 mg/L	128 mg/L	128 mg/L	MBC [26]: 16 mg/L; Activity [27]: Non-Toxic; Activity [28]: Non-Toxic; MIC [29]: 4 mg/L; MBC [21]: 32 mg/L; log K [23]: -0.3984; MIC [24]: 64 mg/L; MIC [25]: > 512 mg/L
CCn1cc(C(=O)O)c(=O)c2cc(F)c(N3CC[N+]4(CN5C(C)=CC(C)=C(C(=O)O)C5=N4)C(C)C3)c(F)c21.[Cl-] (stereo not given)	32 mg/L	> 512 mg/L	128 mg/L	8 mg/L	> 512 mg/L	32 mg/L	1 mg/L	64 mg/L	128 mg/L	8 mg/L	8 mg/L	64 mg/L	1 mg/L	64 mg/L	64 mg/L	128 mg/L	4 mg/L	128 mg/L	128 mg/L	64 mg/L	MBC [26]: 4 mg/L; Activity [27]: Non-Toxic; Activity [28]: Non-Toxic; MIC [29]: 2 mg/L; log K [23]: -0.4791; MIC [24]: 16 mg/L; MIC [25]: > 512 mg/L
CC1=CC(C)=C(C(=O)O)C2=N[N+]3(CCN(c4cc5c(cc4F)c(=O)c(C(=O)O)cn5C4CC4)CC3)CN12.[Cl-]	64 mg/L	> 512 mg/L	32 mg/L	8 mg/L	128 mg/L	8 mg/L	2 mg/L	128 mg/L	128 mg/L	8 mg/L	8 mg/L	64 mg/L	2 mg/L	64 mg/L	128 mg/L	32 mg/L	8 mg/L	128 mg/L	128 mg/L	64 mg/L	MBC [26]: 2 mg/L; Activity [27]: Non-Toxic; Activity [28]: Non-Toxic; MIC [29]: 0.5 mg/L; log K [23]: -0.3214; MIC [24]: 4 mg/L; MIC [25]: > 512 mg/L
